From US8093400B2, “Compounds useful in therapy” (Pfizer Inc., priority 2003, dated 2012) come the findings set out here.

As a reminder, the Ki is a measure of affinity in units of concentration, obtained from inhibition or displacement.

For the assay, the target named is human V1A receptor (Homo sapiens, UniProt P37288). As to the kind of experiment: V1A filter binding assay ([3H]-AVP binding to CHO-hV1A membranes). The settings on record: screen 1.0, [3H]-AVP binding to CHO-hV1A membranes. As to the method: 1.0 V1A Filter Binding Assay
Sequence of human V1A receptor (P37288 whole entry): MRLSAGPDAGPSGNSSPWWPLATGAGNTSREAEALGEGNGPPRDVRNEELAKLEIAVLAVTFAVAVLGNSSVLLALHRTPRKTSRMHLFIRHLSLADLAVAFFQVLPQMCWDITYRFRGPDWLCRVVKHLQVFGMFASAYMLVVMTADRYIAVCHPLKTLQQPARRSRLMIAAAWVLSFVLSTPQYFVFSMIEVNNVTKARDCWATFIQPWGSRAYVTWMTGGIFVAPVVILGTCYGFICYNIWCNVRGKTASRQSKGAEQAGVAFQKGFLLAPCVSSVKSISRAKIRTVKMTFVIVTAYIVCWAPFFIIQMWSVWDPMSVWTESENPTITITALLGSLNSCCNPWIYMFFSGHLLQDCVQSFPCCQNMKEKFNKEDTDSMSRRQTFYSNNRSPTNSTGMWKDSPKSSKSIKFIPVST
Receptor binding assays were performed on cellular membranes prepared from CHO cells stably expressing the human V1A receptor, (CHO-hV1A). The CHO-hV1A cell line was kindly provided under a licensing agreement by Marc Thibonnier, Dept. of Medicine, Case Western Reserve University School of Medicine, Cleveland, Ohio. CHO-hV1A cells were routinely maintained at 37° C. in humidified atmosphere with 5% CO2 in DMEM/Hams F12 nutrient mix supplemented with 10% fetal bovine serum, 2 mM L-glutamine, 15 mM HEPES and 400 μg/ml G418. For bulk production of cell pellets, adherent CHO-hV1A cells were grown to confluency of 90-100% in 850 cm^2 roller bottles containing a medium of DMEM/Hams F12 Nutrient Mix supplemented with 10% fetal bovine serum, 2 mM L-glutamine and 15 mM HEPES. Confluent CHO-hV1A cells were washed with phosphate-buffered saline (PBS), harvested into ice cold PBS and centrifuged at 1,000 rpm. Cell pellets were stored at −80° C. until use. Cell pellets were thawed on ice and homogenised in membrane preparation buffer consisting of 50 mM Tris-HCl, pH 7.4, 5 mM MgCl2 and supplemented with a protease inhibitor cocktail, (Roche). The cell homogenate was centrifuged at 1000 rpm, 10 min, 4° C. and the supernatant was removed and stored on ice. The remaining pellet was homogenised and centrifuged as before. The supernatants were pooled and centrifuged at 25,000×g for 30 min at 4° C. […] Protein concentration was determined using Bradford reagent and BSA as a standard.
Protein linearity followed by saturation binding studies were performed on each new batch of membrane. […] Saturation binding studies were then performed using various concentrations of [^3H]-arginine vasopressin, [^3H]-AVP (0.05 nM-100 nM) and the Kd and Bmax determined.
Compounds were tested for their effects on [^3H]-AVP binding to CHO-hV1A membranes, (^3H-AVP; specific activity 65.5 Ci/mmol; NEN Life Sciences). […] The plates were sealed and counted on a TopCount Microplate Scintillation Counter (Packard Instruments). Non-specific binding (NSB) was determined using 1 μM unlabelled d(CH2)5Tyr(Me)AVP ([β-mercapto-β,β-cyclopentamethylenepropionyl,0-Me-Tyr^2,Arg^8]-vasopressin) (βMCPVP), (Sigma). The radioligand binding data was analysed using a four parameter logistic equation with the min forced to 0%. […] Specific binding was calculated by subtracting the mean NSB cpm from the mean Total cpm. For test compounds the amount of ligand bound to the receptor was expressed as % bound=(sample cpm−mean NSB cpm)/specific binding cpm×100. […] The inhibitory dissociation constant (Ki) was calculated using the Cheng-Prusoff equation: Ki=IC50/(1+[L]/Kd) where [L] is the concentration of ligand present in the well and Kd is the dissociation constant of the radioligand obtained from Scatchard plot analysis. […]
In turn, `O=C(c1cc(F)cc(F)c1)N1CCC(c2nnc(Cn3nccn3)n2-c2ccc(Cl)cc2)CC1` [Example 165, {4-[4-(4-Chloro-phenyl)-5-[1,2,3]triazol-2-ylmethyl-4H-[1,2,4]triazol-3-yl]-piperidin-1-yl}-(3,5-difluoro-phenyl)-methanone] had a Ki of 2.98 nM.

Turning to `O=C(c1ccc(C(F)F)cc1)N1CCC(c2nnc(Cn3nccn3)n2-c2ccc(Cl)cc2)CC1` [Example 206, {4-[4-(4-Chloro-phenyl)-5-[1,2,3]triazol-2-ylmethyl-4H-[1,2,4]triazol-3-yl]-piperidin-1-yl}-(4-difluoromethyl-phenyl)-methanone], the affinity, expressed as Ki, was 2.43 nM.

Consider `O=C(c1n[nH]c2ccccc12)N1CCC(c2nnc(Cn3nccn3)n2-c2ccc(Cl)cc2)CC1` [Example 405, {4-[4-(4-Chloro-phenyl)-5-[1,2,3]triazol-2-ylmethyl-4H-[1,2,4]triazol-3-yl]-piperidin-1-yl}-(1H-indazol-3-yl)-methanone], for which the Ki turned out to be 1.11 nM.

`O=C(c1cc(Cl)ccc1F)N1CCC(c2nnc(Cn3nccn3)n2-c2ccc(Cl)cc2)CC1` [Example 399, (5-Chloro-2-fluoro-phenyl)-{4-[4-(4-chloro-phenyl)-5-[1,2,3]triazol-2-ylmethyl-4H-[1,2,4]triazol-3-yl]-piperidin-1-yl}-methanone] registered a Ki of 1.99 nM.
